# Source: patent publication US20110236504A1, “VERSATILE DISINFECTANT” (priority 2008, published 2011)
# Assays:
# S. aureus 209P = experiment: Metal ion or food preservative added to growth medium, viable count; format: cell-based
# Method: (§1) To a standard medium for counting viable bacteria described below, each metal ion with varied concentration was added. […] Then, the number of viable bacteria was counted with time in a common procedure.
# (§2) Sample bacteria: S. aureus 209P as a representative of Gram-positive bacteria • E. coli 0-157 as a representative of Gram-negative bacteria
# (§3) Standard medium for counting viable bacteria: yeast extract 2.5 g, peptone 5 g, glucose 1 g, agar 15 g, pH 7.2
# [1] = tested on: sample bacteria (S. aureus 209P, E. coli O-157); experiment: Death rate over time, food preservative in purified water pH 3.0
# E. coli O-157 [2] = experiment: Metal ion or food preservative added to growth medium, viable count; format: cell-based; conditions: food preservative in growth medium
# E. coli O-157 [3] = experiment: as above; format: cell-based; conditions: metal ion in growth medium
# Method: as §1, §2, §3
# [4] = food preservative in growth medium
Compound,"(a) Antiproliferative activity, concentration (S. aureus 209P; [4])","(b) Bacteriostatic activity, concentration (S. aureus 209P; [4]) [ppm>]","Death rate ([1]; 50 ppm, 5 min)","Death rate ([1]; 50 ppm, 10 min)","Death rate ([1]; 50 ppm, 15 min)","Death rate ([1]; 50 ppm, 30 min)","Death rate ([1]; 50 ppm, 60 min)","Death rate ([1]; 50 ppm, 90 min)","Death rate ([1]; 50 ppm, 120 min)","Death rate ([1]; 200 ppm, 5 min)","Death rate ([1]; 200 ppm, 10 min)","Death rate ([1]; 200 ppm, 15 min)","Death rate ([1]; 200 ppm, 30 min)","Death rate ([1]; 200 ppm, 60 min)","Death rate ([1]; 200 ppm, 90 min)","Death rate ([1]; 200 ppm, 120 min)","Death rate ([1]; 500 ppm, 5 min)","(a) Antiproliferative activity, concentration (E. coli O-157 [3])","(b) Bacteriostatic activity, concentration (E. coli O-157 [3])","(c) Bactericidal activity, concentration (E. coli O-157 [3]) [ppm>]",also measured
C/C=C/C=C/C(=O)O [Sorbic acid],20~200 ppm,150,0,0,0,2,5,10,15,0,0,0,2,7,12,18,0,,,,"Death rate ([1]; 500 ppm, 10 min): 0; Death rate ([1]; 500 ppm, 15 min): 1; Death rate ([1]; 500 ppm, 30 min): 3; Death rate ([1]; 500 ppm, 60 min): 10; Death rate ([1]; 500 ppm, 90 min): 15; Death rate ([1]; 500 ppm, 120 min): 20; (a) Antiproliferative activity, concentration (E. coli O-157 [2]): 20~200 ppm; (b) Bacteriostatic activity, concentration (E. coli O-157 [2]): 200 ppm>"
"O=[N+]([O-])[O-].[Ag+] [Ag^+, AgNO3]",,,,,,,,,,,,,,,,,,0.05~2 ppm,2~4 ppm,4,
"O.O.O.O.O.O.O.O=S(=O)([O-])[O-].[Ni+2] [Ni^2+, NiSO4•7H2O]",,,,,,,,,,,,,,,,,,20~170 ppm,150~350 ppm,350,"(a) Antiproliferative activity, concentration (S. aureus 209P; metal ion in growth medium): 25~150 ppm; (b) Bacteriostatic activity, concentration (S. aureus 209P; metal ion in growth medium): 120~300 ppm; (c) Bactericidal activity, concentration (S. aureus 209P; metal ion in growth medium): 300 ppm>; Acceleration of growth, concentration (S. aureus 209P; metal ion in growth medium): 5 ppm<; Acceleration of growth, concentration (E. coli O-157 [3]): 10 ppm<"
CCOC(=O)c1ccc(O)cc1 [Ethyl para-hydroxybenzoate],50~300 ppm,250,0,0,0,2,5,8,12,0,0,0,2,5,10,12,0,,,,"Death rate ([1]; 500 ppm, 10 min): 0; Death rate ([1]; 500 ppm, 15 min): 0; Death rate ([1]; 500 ppm, 30 min): 2; Death rate ([1]; 500 ppm, 60 min): 7; Death rate ([1]; 500 ppm, 90 min): 12; Death rate ([1]; 500 ppm, 120 min): 15; (a) Antiproliferative activity, concentration (E. coli O-157 [2]): 40~300 ppm; (b) Bacteriostatic activity, concentration (E. coli O-157 [2]): 230 ppm>"
"O.O.O.O.O.O.[Cl-].[Cl-].[Co+2] [Co^2+, CoCl2•6H2O]",,,,,,,,,,,,,,,,,,100~250 ppm,220~500 ppm,500,"(c) Bactericidal activity, concentration (S. aureus 209P; metal ion in growth medium): 500 ppm>; Acceleration of growth, concentration (S. aureus 209P; metal ion in growth medium): 20 ppm<; Acceleration of growth, concentration (E. coli O-157 [3]): 25 ppm<"
